These results are taken from patent publication US9132164B2, “Pharmaceutical compositions comprising angiotensin-(1-9), derivatives thereof, or a vector expressing ACE2, useful for treating cardiovascular, pulmonary, cerebral, and/or renal remodeling” (PONTIFICIA UNIVERSIDAD CATOLICA DE CHILE, priority 2008, dated 2015).

Entries after “also recorded” stand apart in the source; their conditions may differ. No end group written: not given here.

The nature of test [1]: Plasma angiotensin levels in infarcted rats treated with angiotensin-(1-9) with or without A779. The class given is in vivo, Sprague Dawley rats. The settings on record: with vs without A779, p<0.01. The protocol:
(§1) For studies with angiotensin-(1-9) 28 rats were randomly distributed into two groups and underwent a sham surgery (n=8) or infarction following left coronary artery ligation (n=20). The infarcted rats were randomized to receive the either the carrier, angiotensin-(1-9) (463 ng/kg of body weight for 14 days) or angiotensin-(1-9) plus A779 (463 ng of angiotensin-(1-9)/kg of body weight/min and 100 ng of A779/kg/min for 14 days) by means of osmotic mini-pumps (ALZET) implanted into the jugular under sedation with ketamine-HCl/xilazine (35/7 mg/kg intraperitoneal, respectively).
Plasma angiotensin and bradykinin levels were determined as described by (Ocaranza et al, Hypertension 48:572-8, 2006; Ocaranza et al, Life Sci. 78:1535-42, 2005; Campbell et al, J. Mol. Cell. Cardiol. 27:1545-60, 1995). Briefly, rats were anesthetized with a combination of ketamin (125 mg/kg) and xilazin (12.5 mg/kg) administered via intraperitoneal injection. […] Plasmas were stored at −80° C. until their extraction using C18 Sep-Pak cartridges, and peptides were acetylated. Acetylated angiotensin II, angiotensin I, angiotensin-(1-7), angiotensin-(1-9), bradykinin-(1-7) and bradykinin-(1-9) were separated by high performance liquid chromatography (HPLC) and were detected by radioimmunoassay.

Test [2] concerns rats with myocardial infarction (left coronary artery ligation). In words: Effects of angiotensin-(1-9) administration on hemodynamic parameters and left ventricle weight in infarcted rats. Type of test: in vivo, Sprague Dawley rats. Particulars: infarcted rats (MI), osmotic mini-pump 14 days, average ± SEM. How it is done:
as §1
Systolic blood pressure (SBP) was determined by using the “tail-cuff” method by investigators who were blind to the treatment group. Left ventricle function was determined by transthoracic bidimensional echocardiography using a Sonos 5000 equipped with a 5 to 12 MHz sectorial electronic ultraband S12 Philips transducer. The following echocardiographic parameters were determined: left ventricular end-systolic diameter (LVESD), left ventricular end diastolic diameter (LVEDD), left ventricular fractional shortening (LVFS), left ventricular anterior wall thickness (LVAWT), and left ventricular posterior wall thickness (LLVWT).
(§2) The extent of left ventricular hypertrophy was calculated by the relationship among left ventricular weight (LVW), body weight (BW), mRNA relative levels of the auricular natriuretic factor (ANF), left ventricular protein content (LVP), and protein levels of β-myosinheavy chain (β-MHC) as described in (Ocaranza et al, Hypertension 48:572-8, 2006).

Test [3] concerns Neonatal Sprague-Dawly rat cardiomyocytes. Nature of the test: Hypertrophy of cultured cardiomyocytes induced by norepinephrine or IGF-1. Particulars: co-addition of 10 or 100 μM. Type of test: cell-based. The protocol: Neonatal Sprague-Dawly rat cardiomyocytes were isolated as described by (Foncea et al, J. Biol. Chem. 272:19115-24, 1997). Every study is in accordance with the guide for the care and use of laboratory animals Published by “U.S. National Institutes of Health” (NIH publication No 85-23, revised 1985) and was approved by our Institutional Ethics Committee. Cell cultures were >95% pure. Cardiomyocytes were plated at 70% final density in gelatin coated plates and kept at 37° C. in a 5% CO2/95% air moisturized atmosphere for 24 h in DMEM/M199 (4:1) with 10% bovine fetal serum and 5% calf serum. […]
Cells were grown over slides and were incubated in a buffer conferring stability to the cytoskeleton (10 mM MES pH 6.0, 150 mM NaCl, 5 mM EDTA, 3% sucrose, 5 mM MgCl2) for 5 min. Then, cells were fixed and permeabilized using methanol for 10 min. Non specific binding sites were blocked for 1 h with phosphate-buffered saline (PBS) supplemented with 3% bovine serum albumin. […] Cellular staining was evaluated in a confocal microscope (Carl Zeiss Axiovert 135, LSM Microsystems). Cardiomyocyte size was determined in cells fixed with 4% paraformaldehyde for 10 min and permeabilized with methanol for 10 min. […] The size of at least 100 cells from randomly selected fields was determined using Image J (NIH) software. […]

The test system of test [4] is left ventricle of infarcted rats. Nature of the test: ANF mRNA (RT-PCR) and β-MHC protein (Western blot) in left ventricle of infarcted rats. The settings on record: two weeks via osmotic mini-pumps, p<0.01. The class given is in vivo, Sprague Dawley rats. How it is done: as §1, §2
In animal models as described in example 1, the heart was removed and RNA was purified according to the procedure described in example 3. Later, the amount of ANF mRNA was determined by reverse transcription followed by polymerization chain reaction (RT-PCR) (see example 3). […] Panel B) illustrates RT-PCRs quantification. **p<0.01 vs sham; ^##p<0.01 vs MI. […]

In test [5] the test system is heart cardiomyocytes of infarcted rats. Nature of the test: Cardiomyocyte area and perimeter, cardiac tissue morphometry of infarcted rats. The class given is in vivo, Sprague Dawley rats. Particulars: two weeks via osmotic mini-pumps, p<0.01. The protocol: as §1
Heart mid-ventricle transverse slices (10 μm) were embedded in paraffin, stained with hematoxylin and eosin, and were examined by light microcopy (×20). The size of cardiomyocytes was determined as described by Nakamura et al (Circulation 98:794-9, 1998). Briefly, cell images visualized on a video recorded attached to the microscope were projected in a monitor and they were plotted. The area and perimeter were determined using Image J. software. […] At least 70 cells per animal were measured.
In animal models as described in example 1, heart was removed, histological cuts were made and a morphologic and morphometric analysis was performed on cardiac tissue according to the procedure described in example 3. […] In panel B), quantification is illustrated. **p<0.01 vs sham; ^##p<0.01 vs MI.

On to DRVYIHPFH [angiotensin-(1-9)], for which, in test [1], the “plasma angiotensin-(1-9) levels” value was determined as 6.8±0.8 fmols/g. Besides, in test [2], the CPVI came out at 8.0 ± 0.3 mg, the FC result is reported as “without observing changes”, the LVW result was “significant reduction” and the LVW/BW was determined as 310 ± 16 MV/100 g BW. Besides, the SBP result in test [2] is on record as “without observing changes; also recorded: does not alter”. In test [2] (listed as Ang-(1-9)), this sequence returned an FC of 259 ± 14 beats/min, an LVW of 810 ± 7 mg and an SBP of 112 ± 2 mm Hg. In addition, the “increments in cardiomyocyte areas induced by IGF-1” value in test [3] (IGF-1 10 nM) is given as “significantly prevented”. The “increments in cardiomyocyte areas induced by NE” value in test [3] (NE 10 μM) is recorded as “significantly prevented”. Also, the “ANF mRNA levels, reduction compared with infarcted rats” value in test [4] (RT-PCR) is on record as 81%. Further, in test [4] (Western blot), the “β-MHC protein levels in left ventricle, decrease compared with infarcted rats” value turned out to be 48%. Besides, in test [5], the “cardiomyocyte cellular area increment compared with infarcted rats” value is given as “prevented cellular area increment” and the “cardiomyocyte perimeter, decrease with regard to infarcted rats” value stood at 31%.
